Five molecules from ChEMBL document CHEMBL1201862, “PubChem BioAssay data set” (2004) can be followed below.

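Exposure lasted 48 hours, with cells grown in 96-well plates and compounds tested at five concentrations. GI50 marks 50% less growth.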 The source made the active and inactive calls. Cut-off read from the data, not from the text of the source: active = GI50 up to about 1.1 µM and inactive = higher.

Holding throughout (assay): NCI-60 cell line screen, 48 h
For assay [1], the system named is UACC-257.
In assay [2] the test system is HCT-116.
Assay [3] has as its system OVCAR-4.
Assay [4] concerns DU-145.
For assay [5], the system named is M14.
Assay [6] deals with ACHN.
For assay [7], the system named is IGROV-1.
Assay [8] has as its system MDA-MB-231.
Assay [9] concerns PC-3.
Assay [10] has as its system EKVX.
The test system of assay [11] is NCI-H460.
In assay [12] the test system is MDA-N.
The subject of assay [13] is NCI-H522.
For assay [14], the system named is OVCAR-5.
Assay [15] relates to 786-0.
In assay [16] the test system is SNB-75.

As to `CC(=O)NC(CCCCNC(=O)OC(C)(C)C)C(=O)O` (stereo not given), the GI50 in [1], in assay [2], in assay [3], in [4], in assay [5] and in assay [6] was > 100 µM (inactive) each time. Moreover, the GI50 in assay [7], in [8], in assay [9], in assay [10], in [11] and in assay [12] was > 100 µM (inactive) in each case. Moreover, the figures for the GI50 in assay [13] and in assay [14] were > 100 µM (inactive) and 38.1 µM (inactive), respectively.

Regarding `C=C1C(=O)O[C@@H]2/C=C(\C)CC/C=C(\C)CC[C@@]12O`, the GI50 in assay [1] is 4.86 µM (inactive); in assay [2] it was 2.42 µM (inactive); in assay [3] it was 1.98 µM (inactive); in [4], 1.97 µM (inactive); in assay [5], 3.7 µM (inactive); in assay [6], 1.59 µM (inactive). Also, the GI50 in assay [7] is 3.52 µM (inactive); in assay [8] it was 8.65 µM (inactive); in [9], 4.28 µM (inactive); in assay [10] it was 4.13 µM (inactive); in [15] it was 1.37 µM (inactive); in assay [11], 9.55 µM (inactive). For the same molecule, the GI50 in [12] was 2.25 µM (inactive); in assay [13] it was 0.371 µM (active); in assay [14], 11.4 µM (inactive).

In the case of `Nc1nc(=O)[nH]cc1F` [FLUCYTOSINE], the GI50 in assay [1] was 24 µM (inactive); in assay [2], > 100 µM (inactive); in assay [3], > 100 µM (inactive); in [4] it was > 100 µM (inactive); in [5], > 100 µM (inactive); in [6], > 100 µM (inactive). The GI50 in assay [7], in [9], in assay [10], in assay [15], in assay [11] and in assay [12] was > 100 µM (inactive) each time. The GI50 in assay [13] and in assay [14] was > 100 µM (inactive) in each case.

For the molecule `Cc1cn(C2CC(O)C(Cn3cc(Cn4nc(Br)c(=O)[nH]c4=O)nn3)O2)c(=O)[nH]c1=O` (stereo not given), the GI50 in assay [1], in [2], in assay [3], in assay [4], in [5] and in assay [6] was > 100 µM (inactive) in each case. The GI50 in assay [8], in assay [9], in assay [10], in assay [12], in assay [14] and in [16] was > 100 µM (inactive) each time.

Consider `O=C(O)c1cccc(OCCO)c1`, for which the GI50 in assay [1], in [2], in [3], in assay [4], in [5] and in assay [6] was > 100 µM (inactive) each time. Besides, the GI50 in assay [7], in assay [8], in assay [9], in assay [10], in assay [15] and in [11] was > 100 µM (inactive) throughout. The GI50 in assay [12], in assay [13] and in assay [14] was > 100 µM (inactive) throughout.
